From the OligoGym collection
After the bases stand the sugars from the 5' end (letter, count) and the backbone: PS all phosphorothioate, else s phosphorothioate and o phosphodiester by linkage. Methylation of C is not given here. l = locked nucleic acid (LNA); d = 2'-deoxy (DNA)

Biological target: SNHG14
Conditions: ASO
[1] = Mouse Primary Neuronal Cell, 0.005 µM

| Sequence | target mRNA inhibition (Human Neuronal Cell, 7.5 µM) [%] | target mRNA inhibition (Human Neuronal Cell, 0.2 µM) [%] | target mRNA inhibition (Human Neuronal Cell, 1 µM) [%] | also measured |
| --- | --- | --- | --- | --- |
| TTTATCAATATCTTCTCACT (sugars lddlddldddddddddddll, PS) | 28 | – | – | – |
| TACACTTAATTATACTTCCA (sugars l1 d2 l1 d13 l3, PS) | 54 | – | – | – |
| AATTATTTATACACCAT (sugars l2 d11 l4, PS) | – | 2 | 32 | – |
| TTTATCTCATGACCACC (sugars l2 d11 l4, PS) | – | 54 | 56 | – |
| ATCATTCTCAACAATTAAA (sugars l4 d8 l7, PS) | 27 | – | – | – |
| ATATTGATTCAATTCCC (sugars lddlldddddddlldll, PS) | 63 | – | – | – |
| ACTTCCAGATTTCTACA (sugars l2 d11 l4, PS) | – | 54 | 63 | – |
| TTCCTTTAATGCTTCTA (sugars l4 d11 l2, PS) | – | 55 | 65 | – |
| TTTTAACCAGAGTGGC (sugars l1 d11 l4, PS) | 53 | – | – | – |
| CTGTATACACCATCCCA (sugars ldlddddddddldddll, PS) | 52 | – | – | – |
| TATGACTTATTCCATA (sugars l2 d10 l4, PS) | – | 18 | 14 | – |
| TACACATCTTGTATAC (sugars l3 d10 l3, PS) | – | 14 | 36 | – |
| GTTTCCATCTACTATTAAT (sugars llldlddddddddldddll, PS) | 50 | – | – | – |
| CACTAGTACTCTTATT (sugars l4 d10 l2, PS) | – | 43 | 38 | – |
| TTACACTTAATTATACTTCC (sugars l2 d4 l1 d11 l2, PS) | 41 | – | – | – |
| CACTTAGAATATCCCT (sugars l2 d10 l4, PS) | – | 43 | 35 | – |
| ACATCTCATACTTGCT (sugars l2 d10 l4, PS) | – | -10 | -5 | target mRNA inhibition (Human Neuronal Cell, 5 µM): 8%; target mRNA inhibition [1]: 96% |
| TTTATCAATATCTTCTCA (sugars lddddlddddddldllll, PS) | 61 | – | – | – |
| TTACCTACATCTCATACT (sugars l2 d14 l2, PS) | – | 5 | 14 | target mRNA inhibition (Human Neuronal Cell, 5 µM): 17%; target mRNA inhibition [1]: 77.1% |
| ATTTACACTTAATTATACTT (sugars llllddlddddddldddlll, PS) | 21 | – | – | – |
| CTGTATACACCATCCCA (sugars l1 d12 l1 d1 l2, PS) | 58 | – | – | – |
| TCATCATATTGAACCA (sugars l3 d10 l3, PS) | – | 65 | 68 | – |

| Sequence | target mRNA inhibition (Human Neuronal Cell, 7.5 µM) [%] | target mRNA inhibition (Human Neuronal Cell, 0.2 µM) [%] | target mRNA inhibition (Human Neuronal Cell, 1 µM) [%] | also measured |
| --- | --- | --- | --- | --- |
| TTAAATCCAGCATTCA (sugars l3 d10 l3, PS) | – | 54 | 66 | – |
| TTGATTCAATTCCCTTA (sugars ldlldddddddldldll, PS) | 68 | – | – | – |
| CCATTTATTTCCATTTATT (sugars ldldlddddddddldldll, PS) | 55 | – | – | – |
| AGCTTTTAACCAGAGTGGCA (sugars l1 d17 l2, PS) | 64 | – | – | – |
| CCTACATCTCATACTTGC (sugars l2 d12 l4, PS) | – | – | – | target mRNA inhibition [1]: 97.3% |
| TTCTGTATACACCATCC (sugars l3 d1 l1 d10 l2, PS) | 54 | – | – | – |
| TTATAGCCATTCTATCT (sugars l1 d1 l3 d10 l2, PS) | 67 | – | – | – |
| TTATAGCCATTCTATCT (sugars ldlllddddddldddll, PS) | 44 | – | – | – |
| TACACTTAATTATACTTCCA (sugars ldldddlddddddddlddll, PS) | 58 | – | – | – |
| TTTTTATACCTTTCTTTAAC (sugars ldddlldddddddlddddll, PS) | 15 | – | – | – |
| TTTTTATACCTTTCTTTAAC (sugars lldllddddddddllddlll, PS) | 60 | – | – | – |
| TTATAGCCATTCTATCT (sugars l1 d1 l1 d9 l5, PS) | 55 | – | – | – |
| ATTTACACTTAATTATACTT (sugars llddlldddddddlllddll, PS) | 36 | – | – | – |
| TTTCCATTTATTTCCATTT (sugars lddldldddddddldddll, PS) | 53 | – | – | – |
| ACTCTGCAATACACCAA (sugars l2 d11 l4, PS) | 59 | – | – | – |
| TTATAGCCATTCTATCT (sugars l1 d10 l3 d1 l2, PS) | 51 | – | – | – |
| TGTTTATACCCTTTCCAA (sugars l1 d4 l1 d9 l3, PS) | 56 | – | – | – |
| AGATCATTCTCAACAATTA (sugars ldldlldddddddddddll, PS) | 57 | – | – | – |
| TTTATGTTTACTTCAT (sugars l3 d10 l3, PS) | – | 33 | 47 | – |
| TTTATCAATATCTTCTCA (sugars lddlllddddddddldll, PS) | 67 | – | – | – |
| TCTATATCAAGTTCCTT (sugars l2 d11 l4, PS) | – | 51 | 43 | – |
| ACATCTCATACTTGCT (sugars l2 d12 l2, PS) | – | -13 | -7 | target mRNA inhibition (Human Neuronal Cell, 5 µM): 4%; target mRNA inhibition [1]: 93.9% |

| Sequence | target mRNA inhibition (Human Neuronal Cell, 7.5 µM) [%] | target mRNA inhibition (Human Neuronal Cell, 0.2 µM) [%] | target mRNA inhibition (Human Neuronal Cell, 1 µM) [%] | also measured |
| --- | --- | --- | --- | --- |
| TTCCATGCAAACTTTA (sugars l4 d10 l2, PS) | – | 49 | 64 | – |
| GCTTTTAACCAGAGTGGCA (sugars l1 d16 l2, PS) | 46 | – | – | – |
| AAAATCTCAACTACCATTT (sugars l6 d6 l2 d2 l3, PS) | 23 | – | – | – |
| ATTTATTTCCATTTATTTTC (sugars ldddlldddddddldddlll, PS) | 64 | – | – | – |
| CAAAGATCATTCTCAAC (sugars l3 d8 l6, PS) | 53 | – | – | – |
| AAATTATTTATACACCATCA (sugars llddldldddddddddllll, PS) | 67 | – | – | – |
| TTATACACCATCATTAT (sugars l3 d11 l3, PS) | – | 47 | 52 | – |
| TTTTTTTCTTACTATCTTCA (sugars ldddllddddddddddldll, PS) | 50 | – | – | – |
| CACCTGATAACAGACCCT (sugars l3 d12 l3, PS) | – | 24 | 16 | target mRNA inhibition (Human Neuronal Cell, 5 µM): -10% |
| ATTCAAAGCACACCACC (sugars l2 d12 l3, PS) | – | 25 | 32 | – |
| TGTTTATACCCTTTCC (sugars l4 d10 l2, PS) | – | 58 | 56 | – |
| AGCTTTTAACCAGAGT (sugars l2 d10 l4, PS) | 81 | – | – | – |
| TATTGATTCAATTCCCT (sugars l1 d1 l3 d10 l2, PS) | 71 | – | – | – |
| TTATTCTGACACACTT (sugars l3 d10 l3, PS) | – | 35 | 35 | – |
| TTCTGTATACACCATCC (sugars l1 d1 l2 d11 l2, PS) | 55 | – | – | – |
| TACATCTCATACTTGCT (sugars l4 d11 l2, PS) | – | – | – | target mRNA inhibition [1]: 95.3% |
| TATACCTTTCTTTAACCCTT (sugars l2 d3 l1 d12 l2, PS) | 43 | – | – | – |
| TTATACCTTTCTTTAACC (sugars l4 d12 l2, PS) | – | 38 | 57 | – |
| TATCAATATCTTCTCA (sugars l2 d10 l4, PS) | – | 46 | 61 | – |
| TCCTTTAGCATTTCTAT (sugars l3 d11 l3, PS) | – | 45 | 60 | – |
